Data set [1] addresses hPin1 (Homo sapiens, UniProt Q13526). As to the kind of experiment: protease-coupled PPIase assay, hPin1. The format is biochemical. Conditions: 6 nM hPin1, substrate Ac-Ala-Ala-Ser(PO3H2)-Pro-Arg-pNA, trypsin, pH 7.8, 6° C.; read-out: IC50 class, Target T-1 (hPin1).
Data set [2] concerns the target hFKBP12 (Homo sapiens, UniProt P62942). As to the kind of experiment: protease-coupled PPIase assay, hFKBP12. Format: biochemical. Conditions: 20 nM hFKBP12, substrate Suc-Ala-Phe-Pro-Phe-pNA, chymotrypsin, pH 7.8, 6° C.; read-out: IC50 class, Target T-2 (hFKBP12).
Data set [3] concerns the target hCyp18 (Homo sapiens, UniProt P62937). The experiment in a line: protease-coupled PPIase assay, hCyp18. Format: biochemical. Conditions: 10 nM hCyp18, substrate Suc-Ala-Phe-Pro-Phe-pNA, chymotrypsin, pH 7.8, 6° C.; read-out: IC50 class, Target T-3 (hCyp18).
Data set [4] deals with LpCyp18 (Legionella pneumophila, UniProt Q5ZRZ4). As to the kind of experiment: biochemical. Particulars: IC50 class, Target T-4 (LpCyp18).
For data set [5], the target named is EcParvulin (Escherichia coli, UniProt P0A9L5). As to the kind of experiment: protease-coupled PPIase assay, EcParvulin. The format is biochemical.
Data set [6] addresses T1, Papain (Carica papaya, UniProt P00784).
T1 sequence (P00784 134-345): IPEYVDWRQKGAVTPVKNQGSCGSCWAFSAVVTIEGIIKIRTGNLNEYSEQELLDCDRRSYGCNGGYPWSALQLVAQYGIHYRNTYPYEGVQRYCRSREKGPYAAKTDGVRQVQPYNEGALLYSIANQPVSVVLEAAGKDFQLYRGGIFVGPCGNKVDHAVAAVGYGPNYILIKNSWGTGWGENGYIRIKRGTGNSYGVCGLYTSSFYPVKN
As to the kind of experiment: papain assay. Format: biochemical. Conditions: 16 μg/ml papain, 2 mM Bz-DL-Arg-pNA, pH 6.5, 30° C., 30 min incubation; read-out: IC50 class, Target T-6 (Papain). The method, then: In order to investigate the impact of some of the inventive compounds on the activity of key proteases the following assay was performed: Protease activities were measured spectrophotometrically at 30° C. according to Schomburg and Salzmann (Schomburg, B.; Salzmann M. GBF: Enzyme Handbook. Springer Verlag, Berlin Heidelberg, 1991) and Bergmeyer et al. (Bergmeyer, H. U.; Bergmeyer, J.; Graβl, M. Methods of Enzymatic Analysis, Vol. V Enzymes 3: Peptides, Proteinases and Their Inhibitors. pp 55-371, VCH, Weinheim, 1988). The release of 4-nitroaniline was determined at 390 nm with a Spectramax Plus UV/Vis spectrophotometer (Molecular Devices). The cathepsin B assay was performed in a reaction mixture containing 0.2 μg/ml cathepsin B, 2 mM Z-Arg-Arg-pNA in 88 mM KH2PO4, 12 mM Na2HPO4, 1.33 mM EDTA, 0.03% Brij 35 (pH 5.8). The trypsin assay was carried out in a reaction mixture containing 0.1 μg/ml trypsin and 120 μM Ac-Ala-Ala-Ser(PO3H2)-Pro-Arg-pNA in 35 mM HEPES (pH 7.8) and the papain assay in a mixture consisting of 16 μg/ml papain and 2 mM Bz-DL-Arg-pNA in 10 mM Na2HPO4, 2 mM L-Cys, 5 mM EDTA (pH 6.5). In general, reactions were started by addition of peptide substrate after a 30 min incubation of 1-100 μM effector with given concentrations of enzyme.

A short description of data set [7]: WST-1 cytotoxicity assay, HL-60. The format is cell-based. Particulars: human, HL-60 cells (acute myeloid leukemia); WST-1, 48 h incubation; read-out: EC50 class, cytotoxic effect, CL-1 (HL-60). The method, then:
(§1) For this cytotoxic evaluation of the compounds the commercial available WST-1 assay (Roche) was used according to the manufacturer's instructions. The assay is based on the cleavage of the tetrazolium salt WST-1 by mitochondrial dehydrogenases found in viable cells. In general compounds were added to cells cultured in 96-well plates at 37° C. After 48 h of incubation 10 μl of WST-1 solution was added. The formazan dye was analyzed with an ELISA plate reader at (450 vs. 620) nm. CL-1: human acute myeloid leukemia, HL-60 CL-2: human cervix carcinoma, HeLa CL-3: human prostate carcinoma, PC-3 CL-4: human colon adenocarcinoma, Caco-2 CL-5: human breast adenocarcinoma, MCF-7

The nature of data set [8]: WST-1 cytotoxicity assay, HeLa. Particulars: human, HeLa cells (cervix carcinoma); WST-1, 48 h incubation; read-out: EC50 class, cytotoxic effect, CL-2 (HeLa). Format: cell-based. The method, then: as §1
Data set [9] is described as follows: WST-1 cytotoxicity assay, PC-3. The format is cell-based. Conditions: human, PC-3 cells (prostate carcinoma); WST-1, 48 h incubation; read-out: EC50 class, cytotoxic effect, CL-3 (PC-3). The method, then: as §1

The structures appear in SMILES notation.

Chain of hPin1 (Q13526 whole entry): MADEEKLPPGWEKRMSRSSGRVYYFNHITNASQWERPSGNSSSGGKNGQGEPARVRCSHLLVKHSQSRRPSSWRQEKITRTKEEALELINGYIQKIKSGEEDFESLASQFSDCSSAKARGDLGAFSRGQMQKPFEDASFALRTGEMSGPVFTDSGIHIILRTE
Chain of hCyp18 (P62937 whole entry): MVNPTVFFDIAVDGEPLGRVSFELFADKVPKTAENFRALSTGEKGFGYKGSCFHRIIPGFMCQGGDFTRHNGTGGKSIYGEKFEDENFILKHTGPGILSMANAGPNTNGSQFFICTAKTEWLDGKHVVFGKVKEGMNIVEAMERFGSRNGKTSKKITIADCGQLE
Chain of hFKBP12 (P62942 whole entry): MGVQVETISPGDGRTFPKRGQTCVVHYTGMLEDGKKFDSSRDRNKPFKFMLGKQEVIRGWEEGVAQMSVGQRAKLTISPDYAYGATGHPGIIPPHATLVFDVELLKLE
Chain of LpCyp18 (Q5ZRZ4 1-164): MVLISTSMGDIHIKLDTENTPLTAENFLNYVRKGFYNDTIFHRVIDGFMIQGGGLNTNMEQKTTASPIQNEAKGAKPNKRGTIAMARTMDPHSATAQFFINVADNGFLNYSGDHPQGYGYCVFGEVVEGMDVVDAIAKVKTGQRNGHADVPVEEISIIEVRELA
Chain of EcParvulin (P0A9L5 whole entry): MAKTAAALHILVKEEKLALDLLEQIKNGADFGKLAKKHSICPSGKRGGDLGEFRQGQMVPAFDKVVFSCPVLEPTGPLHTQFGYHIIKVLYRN

Turning to `O=C(Nc1cc(Cl)c(O)c(Cl)c1)NC1CCCCC1` [Compound 710], the IC50 was below 1 µM in [1]; above 100 µM in data set [2]; above 100 µM in data set [3]; above 100 µM in data set [4]; above 100 µM in [5]; above 100 µM in data set [6].
In the case of `Cc1c(Cl)cc(NC(=O)NC23CC4CC(CC(C4)C2)C3)c(O)c1Cl` [Compound 118], the IC50 was 1 to 10 µM in data set [1]; 50 to 100 µM in data set [2]; 10 to 50 µM in data set [3]; 10 to 50 µM in data set [4]; 1 to 10 µM in [5]; above 100 µM in data set [6].
For `Oc1c(NCc2ccccc2Sc2cccc(Cl)c2)ccc(F)c1F` [Compound 403], the EC50 at 48 h was 10 to 50 µM in data set [7], below 10 µM in [8] and below 10 µM in data set [9].
With `Cc1cccc(C)c1NC(=O)Nc1cc(Cl)c(O)c(Cl)c1` [Compound 716], the IC50 is 1 to 10 µM in [1]; above 100 µM in [2]; above 100 µM in [3]; above 100 µM in data set [4]; 10 to 50 µM in data set [5]; above 100 µM in [6].
Regarding `Oc1c(Cl)cc(Cl)cc1NCc1cccc(OCc2ccccc2)c1` [Compound 484], the EC50 at 48 h was 10 to 50 µM in data set [7], below 10 µM in data set [8] and below 10 µM in [9].
`CCCCCNC(=O)Nc1ccc(C)cc1O` [Compound 643]: the IC50 in [1] is 10 to 50 µM; in [2], above 100 µM; in data set [3], above 100 µM; in data set [4], above 100 µM; in data set [5], above 100 µM; in data set [6], above 100 µM.
`Cc1c(Cl)cc(NCc2ccccc2Sc2ccc(Cl)cc2)c(O)c1Cl` [Compound 371]: the IC50 was below 1 µM in data set [1]; above 100 µM in data set [2]; 10 to 50 µM in data set [3]; above 100 µM in data set [4]; 10 to 50 µM in data set [5]; above 100 µM in [6].
For `Cc1c(Cl)cc(NCc2cccc(Oc3ccc(Cl)cc3)c2)c(O)c1Cl` [Compound 498], the IC50 in data set [6] was above 100 µM.
The same measure, in the same setting: with `Oc1c(F)cc(Br)cc1NCc1ccccc1Sc1ccc(Cl)cc1` [Compound 385] the figure was above 100 µM.
For `CCc1c(Cl)cc(NCc2ccccc2Sc2ccc(Cl)cc2)c(O)c1Cl` [Compound 441], the IC50 in data set [1] is 1 to 10 µM; in [2], above 100 µM; in data set [3], 10 to 50 µM; in [4], above 100 µM; in data set [5], above 100 µM; in data set [6], above 100 µM.
For the molecule `Oc1c(Cl)cccc1NCc1ccccc1Sc1ccc(Cl)cc1` [Compound 343], the IC50 in [1] is 1 to 10 µM; in data set [2], above 100 µM; in data set [3] it was 10 to 50 µM; in data set [4] it was above 100 µM; in data set [5], above 100 µM; in data set [6], above 100 µM.
For the molecule `O=C(NCCc1ccccc1)Nc1cc(Cl)c(O)c(NCc2ccccc2Sc2ccc(Cl)cc2)c1` [Compound 632], the EC50 at 48 h in data set [7] is below 10 µM; in data set [9], 10 to 50 µM.
The matching figures for `O=C(NCc1ccccc1)Nc1cc(Cl)c(O)c(NCc2ccccc2Sc2ccc(Cl)cc2)c1` [Compound 631]: below 10 µM and 10 to 50 µM.
For the molecule `Oc1c(Cl)cc(Cl)cc1NCc1ccccc1Sc1ccccc1Cl` [Compound 332], the concentration giving a half-maximal response (EC50) at 48 h in data set [7], in data set [8] and in data set [9] was 10 to 50 µM each time.
Turning to `Cc1c(Cl)cc(NCc2cccc(Oc3ccc(C(C)(C)C)cc3)c2)c(O)c1Cl` [Compound 499], in data set [6], the IC50 is above 100 µM.
Same read-out and setting: under `Cc1c(Cl)cc(NC(=O)c2ccc(-c3ccccc3)cc2)c(O)c1Cl` [Compound 644] stands above 100 µM.
As to `CCCCCCCCS(=O)(=O)Nc1cc(Cl)c(C)c(Cl)c1O` [Compound 563], the half-maximal inhibitory concentration (IC50) was 1 to 10 µM in [1]; above 100 µM in [2]; above 100 µM in data set [3]; above 100 µM in data set [4]; above 100 µM in [5]; above 100 µM in data set [6].

The values above are taken from US20110065760A1, “COMPOUNDS FOR THE INHIBITION OF ROTAMASES AND USE THEREOF” (Jerini AG, priority 2002, published 2011).
